The OPERA property sets (Mansouri et al. 2018)

Structure (SMILES) | logP
CC(Cc1ccccc1)OC(=O)N(C)C (stereo not drawn) | 2.6
CCC(CC)COC(=O)N(CC)CC | 3.6
CCN(CC)C(=O)OCCc1c[nH]c2ccccc12 | 3.3
NC(=O)OCCCc1cccnc1 | 0.46
CC(C)OC(=O)N(C)C | 1.38
CN(C)C(=O)OCCc1c[nH]c2ccccc12 | 2.54
CCN(CC)C(=O)OCCc1ccccc1 | 3.2
CCC(CC)COC(=O)N(C)C | 2.87
CN(C)C(=O)OCCc1ccccc1 | 2.4
CCN(CC)C(=O)OCc1ccccc1 | 2.93
NC(=O)OCCc1ccccc1 | 1.5
CCN(CC)C(=O)OCC(C)C | 2.82
CN(C)C(=O)OCCCc1cccnc1 | 1.44
CNC(=O)OCc1ccccc1 | 1.68
CCN(CC)C(=O)OCCCc1ccccn1 | 2.36
NC(=O)OCCc1c[nH]c2ccccc12 | 1.69
NC(=O)OCCCc1ccccc1 | 1.96
CN(C)C(=O)OCCCc1ccccc1 | 2.93
